“And” between values parts separate entries of the source, which are not always exact repeats. Equal entries are not always repeated.
Details: Crystal, Calculated from knudsen effusion weight loss

O=Cc1ccc(O)cc1 [4-hydroxybenzaldehyde]
Details	vapor or sublimation pressure
324.2 K	0.000157 kPa and 0.000151 kPa and 0.000149 kPa
326.16 K	0.000197 kPa and 0.000193 kPa and 0.000187 kPa
328.31 K	0.000252 kPa and 0.000244 kPa and 0.000242 kPa
330.18 K	0.000303 kPa and 0.000296 kPa and 0.000308 kPa
332.16 K	0.000382 kPa and 0.000375 kPa and 0.00037 kPa
334.18 K	0.000477 kPa and 0.000472 kPa and 0.000463 kPa
336.22 K	0.000603 kPa and 0.000602 kPa and 0.000583 kPa
338.34 K	0.000756 kPa and 0.000738 kPa and 0.000728 kPa
340.17 K	0.000926 kPa and 0.000905 kPa and 0.000886 kPa
341.3 K	0.001019 kPa and 0.001005 kPa and 0.000984 kPa

O=Cc1cccc(O)c1 [3-hydroxybenzaldehyde]
Details	vapor or sublimation pressure
312.17 K	0.000139 kPa and 0.000134 kPa and 0.000131 kPa
314.2 K	0.000177 kPa and 0.000171 kPa and 0.000168 kPa
316.2 K	0.000233 kPa and 0.00022 kPa and 0.000216 kPa
318.19 K	0.00028 kPa and 0.000275 kPa and 0.000288 kPa
320.18 K	0.000377 kPa and 0.000358 kPa and 0.000353 kPa
322.2 K	0.000462 kPa and 0.000453 kPa and 0.00044 kPa
324.17 K	0.000581 kPa and 0.000557 kPa and 0.000542 kPa
326.22 K	0.000738 kPa and 0.000712 kPa and 0.000694 kPa
328.18 K	0.000907 kPa and 0.000871 kPa and 0.000849 kPa
330.19 K	0.001139 kPa and 0.00109 kPa and 0.001058 kPa

CC(C)(C)c1cc(C=O)c(O)c(C(C)(C)C)c1 [3,5-di-tert-butyl-2-hydroxybenzaldehyde]
Details	vapor or sublimation pressure
296.28 K	0.000151 kPa and 0.000143 kPa and 0.00014 kPa
298.16 K	0.000193 kPa and 0.00018 kPa and 0.000176 kPa
300.17 K	0.000248 kPa and 0.000237 kPa and 0.000234 kPa
302.18 K	0.000304 kPa and 0.0003 kPa and 0.000322 kPa
304.15 K	0.000408 kPa and 0.000382 kPa and 0.000378 kPa
306.37 K	0.000542 kPa and 0.000514 kPa and 0.000505 kPa
308.18 K	0.000673 kPa and 0.000631 kPa and 0.00062 kPa
310.17 K	0.000861 kPa and 0.000812 kPa and 0.000801 kPa
312.2 K	0.001099 kPa and 0.001032 kPa and 0.001014 kPa

— the NIST ThermoML archive (doi:10.1016/j.jct.2009.10.009)
